Assay: Chemical stability of the compound assessed as half life in phosphate buffer at pH 6.0
Type: physicochemical

`CC(=O)Nc1ccc(OC(=O)CN(C)C)cc1.Cl` and `CC(=O)Nc1ccc(OC(=O)CCN(C)C)cc1.Cl` are within 1.5-fold of each other in half-life: 1.28 h for the first, 1.88 h for the second.

`CCN(CC)CC(=O)Oc1ccc(NC(C)=O)cc1.Cl` and `CCN(CC)CCC(=O)Oc1ccc(NC(C)=O)cc1.Cl` are within 1.5-fold of each other in half-life: 1.76 h for the first, 1.32 h for the second.

Compared with `CC(=O)Nc1ccc(OC(=O)CCN2CCCCC2)cc1.Cl`, `CC(=O)Nc1ccc(OC(=O)[C@@H]2CCCN2)cc1.Cl` [ACETAMINOPHEN PROLINATE HYDROCHLORIDE] is 5.4-fold lower in half-life: 1.33 h for the first, 0.248 h for the second.

Compared with `CC(C)[C@H](N)C(=O)Oc1ccc2c3c1O[C@H]1C(=O)CC[C@@]4(O)[C@@H](C2)N(CC2CC2)CC[C@]314.O=C(O)C(F)(F)F`, `CC(=O)Nc1ccc(OC(=O)[C@@H](N)C(C)C)cc1.Cl` [ACETAMINOPHEN VALINATE HYDROCHLORIDE] is 2.9-fold higher in half-life: 0.53 h for the first, 1.52 h for the second.

`CC(=O)Nc1ccc(OC(=O)[C@H](C)N)cc1.Cl` [ACETAMINOPHEN ALANINATE HYDROCHLORIDE] showed a half-life of 0.539 h.

From ChEMBL document CHEMBL1795248, “N,N'-Dialkylaminoalkylcarbonyl (DAAC) prodrugs and aminoalkylcarbonyl (AAC) prodrugs of 4-hydroxyacetanilide and naltrexone with improved skin permeation properties” (Bioorg Med Chem Lett, 2011)
